Each block holds one molecule with its values, some of them ahead of it.
Tests used:
U87 = U87 uptake of fluorescently labeled LDH5, flow cytometry; assay type: cell-based
Description: FIG. 26. U87 uptake. […] Fluorescently labeled LDH5 and Transferrin were pre-incubated with anti-LDHa at equilmolar concentrations. The antibody protein combination were then fed to U87 for 30 min. Cells were then trypsinized, acid washed, fixed in 2% PFA. Fluorescence intensity was obtained by flow cytometry. Anti-LDHa blocks uptake by approximately 50%, but has no effect on Transferrin uptake. N=2, p<0.05.
FIG. 27. U87 uptake. […] Fluorescently labeled LDH5 and Transferrin were incubated with U87 in the presence or absence of 20 mM oxamate for 30 min. Cells were then trypsinized, acid washed, fixed in 2% PFA. Fluorescence intensity was obtained by flow cytometry. N=1.
FIG. 28. U87 uptake. […] Fluorescently labeled LDH5 and Transferrin were incubated with U87 in the presence or absence of equimolar MDH for 30 min. Cells were then trypsinized, acid washed, fixed in 2% PFA. Fluorescence intensity was obtained by flow cytometry. N=1.
FIG. 29. U87 uptake. […] Cells were pre-incubated with 30 uM Dyngo 4a or 18 uM Pitstop. Fluorescently labeled LDH5 was then added for 30 min. Cells were then trypsinized, acid washed, fixed in 2% PFA. Fluorescence intensity was obtained by flow cytometry.
Experimental wells were pulsed with 10 ug/mL LDH-A488 for 30 min or 24 hours as indicated (control wells received no LDH) at 37° C. Cells were treated for 2 min with 0.5M acetic acid+150 mM NaCl (pH 2.5), followed by 4 subsequent washes in RPMI+10% FBS. […] (See FIGS. 26-29).

Tumor cells = test: LDH-5 internalization by tumor cells, flow cytometry (FIGS. 16-19); assay type: cell-based; settings: sodium oxamate, FIG. 18
Description: FIG. 17. Tumor cells internalize LDH-5, which can be reduced by antibody blocking. 10 ug/ml of LDH5 specific monoclonal antibody was added to cells 1 hour prior to culture with LDH5 as described above and evaluated for internalization using flow cytometry to evaluate fluorescence.
FIG. 19. LDH-5 internalization is receptor mediated and Clathrin dependent. LDH5 internalization is reduced with receptor mediated endocytosis inhibitors.
LDH5 internalization is reduced with receptor mediated endocytosis inhibitors. This supports that internalization is mediated by a specific receptor, as opposite to bulk phagocytosis.

[1] = system: monocytes from healthy donors; test: NKG2D ligand (MICA, MICB, ULBP-1) mRNA induction in monocytes from healthy donors (MHD), qPCR; assay type: cell-based, human; settings: U87 supernatant with sodium oxamate (100 mM in FIG. 2 panel E; 20 mM in the LDH inhibition method); 18 h; qPCR
Text: FIG. 2. Biochemical purification of tumor-derived Lactate Dehydrogenase, expression in glioma cell lines and verification of LDH-mediated induction of NKG2D ligands on monocytes. (Panel A) Protein purification strategy. […] of U87 glioblastoma cell line supernatant were subjected to ammonium sulfate precipitation. Active fractions were passed over a phenyl Sepharose column and active fractions were then subjected to size exclusion (Superdex 200), followed by ion exchange (MonoS) before Mass Spectroscopy (MS) analysis. (Panel B) Following separation by chromatography, fractions were dialyzed into PBS and cultured with MHD (healthy monocytes) for 18 hours. Whole cell mRNA was reverse transcribed, and induction of MICB and ULBP-1 was analyzed relative to media alone controls. Western blot analysis using a monoclonal antibody to LDH-5 (ab101562) was performed on […] of total protein to confirm the presence of LDH-5 in the active fractions. (Panel C) mRNA isolated from PBMC of healthy donors, 293T cells (as negative controls), and U87, U251, and SF767 glioma cell lines were analyzed for expression of LDHA and LDHB by qPCR. (Panel D) A 1:10 dilution of fresh, unfrozen glioblastoma cell line supernatants was analyzed for total LDH enzymatic activity and expressed as OD 495 nm. (Panel E) Validation of LDH induction of NKG2D ligands in monocytes. Six hundred twenty five U/L of purified, native LDH-5, fresh U87 supernatant, or fresh U87 supernatant in the presence of 100 mM sodium oxamate (NaOx) were cultured with MHD. Eighteen hours later, mRNA was isolated and analyzed for MICA, MICB, and ULBP-1 by qPCR. Values represent induction relative to MHD cultured in media alone. (Panel F) Fresh U87 supernatant, 625 U/L of purified, native LDH-5, LDH-5+0.5 mM Pyruvate (Pyr), or LDH-5+0.5 mM pyruvate and 100 mM NaOx were cultured with MHD. Eighteen hours later, mRNA was isolated and analyzed for MICA, MICB and ULBP-1 by qPCR. Values represent induction relative to MHD cultured in media alone. (Panel G) MHD were cultured with native LDH-5 isolated from liver cells. Eighteen hours later, MICB (black bars) and ULBP-1 (gray bars) were measured by qPCR. (Panel H) Expression of NKG2D and NKp46 on primary human NK cells following a 12 hour incubation with LDH (50 ug/mL) or lactate (20 mM). Cells were surface stained with antibodies directed against CD3, CD56, NKG2D, and NKp46 and analyzed by flow cytometry. The expression level of NKG2D and NKp46 are plotted against CD56. (Panel I) Expression of CD107a on primary human NK cells following IL-2 (1000 U/ml) activation and a 6 hour incubation with LDH (50 ug/mL) or lactate (20 mM). Cells were surface stained with antibodies directed against CD3, CD56, and CD107a and analyzed by flow cytometry. Representative data are shown in the top panels, a summary of percent CD107a+NK cells is shown below. (Panel J) 293T cells were transiently transfected with a pcDNA3.1 (−) vector encoding either LDHA or LDHB, or both constructs. Supernatant was then cultured with CD14-positively selected MHD. Eighteen hours later, MICB and ULBP-1 were measured by qPCR. Values represent induction relative to monocytes cultured in media alone. *P<0.05, **P<0.01.
FIG. 21. Purified native LDH5 or LDH1 was cultured with monocytes from healthy donors. Eighteen hours later, MICB and ULBP-1 were measured by qPCR. Values represent induction relative to monocytes cultured in medium alone. […]

[2] = system: monocytes, or monocyte derived macrophages; test: Uptake of fluorescently labeled LDH5 by monocytes / monocyte derived macrophages (CD14+ cells), flow cytometry; assay type: cell-based, human; settings: monocyte derived macrophages pre-incubated with 25 uM chlorpromazine for 30 min, labeled LDH5 for a further 30 min; N=2
Description: FIG. 23. […] Fluorescently labeled LDH5 was pre-incubated with anti-LDHa at equilmolar concentrations. The antibody protein combination was then fed to monocytes, or monocyte derived macrophages for 30 min. Cells were then trypsinized, acid washed, fixed in 2% PFA. Fluorescence intensity was obtained by flow cytometry. Anti-LDHa blocks uptake by approximately 50%. Macrophages N=1, Monocytes N=2.
FIG. 24. […] Monocyte derived macrophages were pre-incubated with 25 uM chlorpromazine for 30 min. Fluorescently labeled LDH5 was then added for an additional 30 min. Cells were then trypsinized, acid washed, fixed in 2% PFA. Fluorescence intensity was obtained by flow cytometry. N=2
FIG. 25. […] Fluorescently labeled LDH5 was incubated with U87 in the presence or absence of equimolar MDH for 30 min. Cells were then trypsinized, acid washed, fixed in 2% PFA. Fluorescence intensity was obtained by flow cytometry. N=2.
In an experiment utilizing the antibody with LDH5 in serum, the LDH5 complexed to the antibody was added to macrophages and to a sample of monocytes. […] Monocyte derived macrophages were pre-incubated with 25 uM chlorpromazine for 30 min. […] Fluorescence intensity was obtained by flow cytometry. […] Fluorescence intensity was obtained by flow cytometry. Cells exposed to LDH5-A488 were compared to cells without and amount of fluorescence was determined to represent amount of LDH5 inside of the cell.

primary human NK cells = test: NKG2D expression and CD107a degranulation of primary human NK cells after incubation with LDH or lactate; assay type: cell-based; settings: LDH 50 ug/mL or lactate 20 mM; 12 hour (NKG2D, NKp46) or 6 hour after IL-2 (CD107a)
Text: FIG. 2. Biochemical purification of tumor-derived Lactate Dehydrogenase, expression in glioma cell lines and verification of LDH-mediated induction of NKG2D ligands on monocytes. (Panel A) Protein purification strategy. […] of U87 glioblastoma cell line supernatant were subjected to ammonium sulfate precipitation. Active fractions were passed over a phenyl Sepharose column and active fractions were then subjected to size exclusion (Superdex 200), followed by ion exchange (MonoS) before Mass Spectroscopy (MS) analysis. (Panel B) Following separation by chromatography, fractions were dialyzed into PBS and cultured with MHD (healthy monocytes) for 18 hours. Whole cell mRNA was reverse transcribed, and induction of MICB and ULBP-1 was analyzed relative to media alone controls. […] (Panel C) mRNA isolated from PBMC of healthy donors, 293T cells (as negative controls), and U87, U251, and SF767 glioma cell lines were analyzed for expression of LDHA and LDHB by qPCR. (Panel D) A 1:10 dilution of fresh, unfrozen glioblastoma cell line supernatants was analyzed for total LDH enzymatic activity and expressed as OD 495 nm. […] Eighteen hours later, mRNA was isolated and analyzed for MICA, MICB, and ULBP-1 by qPCR. […] Eighteen hours later, mRNA was isolated and analyzed for MICA, MICB and ULBP-1 by qPCR. […] Eighteen hours later, MICB (black bars) and ULBP-1 (gray bars) were measured by qPCR. […]

[3] = biological target: UL16-binding protein 1 (ULBP1) on monocytes (human) (UniProt Q9BZM6); test: cell-based or functional assay
Chain of UniProt Q9BZM6 (Q9BZM6 26-216): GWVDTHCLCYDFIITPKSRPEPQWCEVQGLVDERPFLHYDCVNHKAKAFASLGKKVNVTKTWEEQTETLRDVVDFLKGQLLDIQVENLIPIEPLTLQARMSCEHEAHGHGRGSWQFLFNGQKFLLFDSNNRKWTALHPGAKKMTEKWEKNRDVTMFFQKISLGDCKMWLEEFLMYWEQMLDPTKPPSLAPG

[4] = biological target: MHC class I polypeptide-related sequence B (MICB) on monocytes (human) (UniProt Q29980); test: cell-based or functional assay
Chain of UniProt Q29980 (Q29980 23-383): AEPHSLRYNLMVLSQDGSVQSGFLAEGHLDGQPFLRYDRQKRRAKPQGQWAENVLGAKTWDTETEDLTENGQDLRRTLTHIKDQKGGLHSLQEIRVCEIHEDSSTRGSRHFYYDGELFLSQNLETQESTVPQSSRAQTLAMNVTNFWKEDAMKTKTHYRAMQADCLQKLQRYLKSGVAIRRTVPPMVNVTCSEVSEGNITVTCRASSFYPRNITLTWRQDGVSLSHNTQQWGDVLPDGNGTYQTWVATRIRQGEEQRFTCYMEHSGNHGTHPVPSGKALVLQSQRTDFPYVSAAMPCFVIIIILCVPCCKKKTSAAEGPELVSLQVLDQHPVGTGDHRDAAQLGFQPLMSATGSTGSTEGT

Molecule: O=C(N/N=C/c1cc(O)c(O)cc1O)c1cc2ccccc2cc1O [Dyngo 4a]
LDH5 uptake, effect in words (U87; U87 pre-incubated with 30 uM Dyngo 4a, labeled LDH5 for 30 min): block LDH5 uptake

Molecule: O=C1N=C(NS(=O)(=O)c2cccc3ccccc23)SC1=Cc1ccc(Br)cc1 [Pitstop]
LDH5 uptake, effect in words (U87; U87 pre-incubated with 18 uM Pitstop, labeled LDH5 for 30 min): block LDH5 uptake

Molecule: NC(=O)C(=O)[O-].[Na+] [Sodium oxamate, sodium oxamate, reference compound]
LDH-5 internalization in tumor cells, effect in words (Tumor cells): reduces internalization
LDH5 uptake, effect in words (U87; U87, 20 mM oxamate, 30 min, N=1): blocks LDH5 uptake
Ability of U87 supernatant to induce NKG2D ligands (mRNA) on MHD [1]: significantly reduced

Molecule: CN(C)CCCN1c2ccccc2Sc2ccc(Cl)cc21 [chlorpromazine]
LDH5 uptake, effect in words [2]: blocks LDH5 uptake

Molecule: CC(O)C(=O)O (centres unmarked) [lactate]
NK cell NKG2D expression or degranulation (primary human NK cells): neither lactate nor LDH-5 alone directly impacted

IFN-γ production by degranulating NK cells [3]: 20.2%
degranulation of IL-2-activated NK cells [3]: 75.3%
IFN-γ production by degranulating NK cells [4]: 20.2%
degranulation of IL-2-activated NK cells [4]: 75.3%
Molecule: Natural killer group 2, member D (NKG2D) receptor on NK cells (from UniProt P26718 1-216)

From patent US20170029531A1, “INHIBITION OF LACTATE DEHYDROGENASE 5 (LDH-5) BINDING, INCORPORATION, INTERNALIZATION AND/OR ENDOCYTOSIS TO IMMUNE CELLS” (Seattle Children's Hospital (dba Seattle Children's …, priority 2014, published 2017)
